Data as given in patent US11712458B2, “Degradation of Bruton's tyrosine kinase (BTK) by conjugation of BTK inhibitors with E3 ligase ligand and methods of use” (DANA-FARBER CANCER INSTITUTE, INC., priority 2018, dated 2023).

Test system: patient-derived mantle cell lymphoma (MCL) cells (DFBL-96069)
Test: Patient-derived xenograft MCL mouse model
Assay type: in vivo
Conditions: NSG mice grafted with MCL cells, IP, QD, 50 mg/kg, two weeks; FIG. 5
Protocol: NSG Mice were grafted with patient-derived mantle cell lymphoma (MCL) cells (DFBL-96069). Once burden of disease reached ˜2%, treatment began with indicated compounds: vehicle (IP, BID), Compound I-1 (IP, QD, 50 mg/kg), lenalidomide (IP, QD, 50 mg/kg), and ibrutinib (PO, QD, 30 mg/kg). Mice were treated for two weeks and 4-6 hours after the last dose, peripheral blood was taken and quantified for disease burden via flow cytometry.

Cc1c(NC(=O)c2ccc(C(C)(C)C)cc2)cccc1-c1cn(C)c(=O)c(Nc2ccc(C(=O)N3CCN(CCCCCCNC(=O)CNc4cccc5c4C(=O)N(C4CCC(=O)NC4=O)C5=O)CC3)cc2)n1 (stereo not shown) [II-1]
Efficacy (disease burden in peripheral blood via flow cytometry): showed efficacy
